From PubChem BioAssay (NCI)
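Assay format: 96-well plates, 48-hour exposure. TGI: total growth inhibition.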

Assays:
Test in all cases: NCI-60 cell line screen, 48 h
NCI-H522 lung = tested on: NCI-H522 lung
RXF 393 renal = tested on: RXF 393 renal
BT-549 breast = tested on: BT-549 breast
NCI-H23 lung = tested on: NCI-H23 lung
OVCAR-8 ovarian = tested on: OVCAR-8 ovarian
TK-10 renal = tested on: TK-10 renal
MOLT-4 leukemia = tested on: MOLT-4 leukemia
SF-539 CNS = tested on: SF-539 CNS
SF-295 CNS = tested on: SF-295 CNS
CCRF-CEM leukemia = tested on: CCRF-CEM leukemia
OVCAR-5 ovarian = tested on: OVCAR-5 ovarian
EKVX NSCLC = tested on: EKVX NSCLC
MDA-N = tested on: MDA-N
UACC-257 melanoma = tested on: UACC-257 melanoma
HCC-2998 colon = tested on: HCC-2998 colon
OVCAR-3 ovarian = tested on: OVCAR-3 ovarian
A498 renal = tested on: A498 renal
SK-MEL-28 melanoma = tested on: SK-MEL-28 melanoma
SW-620 colon = tested on: SW-620 colon
SN12C renal = tested on: SN12C renal
HOP-62 NSCLC = tested on: HOP-62 NSCLC
ACHN renal = tested on: ACHN renal
PC-3 prostate = tested on: PC-3 prostate
T-47D breast = tested on: T-47D breast
MALME-3M melanoma = tested on: MALME-3M melanoma
OVCAR-4 ovarian = tested on: OVCAR-4 ovarian
M14 melanoma = tested on: M14 melanoma
786-0 renal = tested on: 786-0 renal
MDA-MB-231 breast = tested on: MDA-MB-231 breast
COLO 205 colon = tested on: COLO 205 colon
MCF7 breast = tested on: MCF7 breast
K-562 leukemia = tested on: K-562 leukemia
U251 CNS = tested on: U251 CNS
SF-268 CNS = tested on: SF-268 CNS
SK-MEL-5 melanoma = tested on: SK-MEL-5 melanoma
A549 NSCLC = tested on: A549 NSCLC
HOP-92 NSCLC = tested on: HOP-92 NSCLC
SK-OV-3 ovarian = tested on: SK-OV-3 ovarian
RPMI-8226 leukemia = tested on: RPMI-8226 leukemia
NCI-H226 lung = tested on: NCI-H226 lung
UO-31 renal = tested on: UO-31 renal
HS 578T breast = tested on: HS 578T breast
MDA-MB-435 = tested on: MDA-MB-435
UACC-62 melanoma = tested on: UACC-62 melanoma
SNB-75 CNS = tested on: SNB-75 CNS
SNB-19 CNS = tested on: SNB-19 CNS
HCT-116 colon = tested on: HCT-116 colon
HL-60(TB) leukemia = tested on: HL-60(TB) leukemia
SR leukemia = tested on: SR leukemia
KM12 colon = tested on: KM12 colon
IGROV1 ovarian = tested on: IGROV1 ovarian
HT29 colon = tested on: HT29 colon
DU-145 prostate = tested on: DU-145 prostate
LOX IMVI melanoma = tested on: LOX IMVI melanoma
NCI-H460 lung = tested on: NCI-H460 lung
CAKI-1 renal = tested on: CAKI-1 renal
SK-MEL-2 melanoma = tested on: SK-MEL-2 melanoma
HCT-15 colon = tested on: HCT-15 colon
NCI/ADR-RES ovarian = tested on: NCI/ADR-RES ovarian

SMILES: Nc1ccc(C(=O)Nn2c(-c3ccccc3)nc3ccccc3c2=O)cc1
- TGI (NCI-H522 lung): > 100 µM
- TGI (RXF 393 renal): > 100 µM
- TGI (BT-549 breast): > 100 µM
- TGI (NCI-H23 lung): > 100 µM
- TGI (OVCAR-8 ovarian): > 100 µM
- TGI (TK-10 renal): > 100 µM
- TGI (MOLT-4 leukemia): > 100 µM
- TGI (SF-539 CNS): > 100 µM
- TGI (SF-295 CNS): > 100 µM
- TGI (CCRF-CEM leukemia): > 100 µM
- TGI (OVCAR-5 ovarian): > 100 µM
- TGI (EKVX NSCLC): > 100 µM
- TGI (MDA-N): > 100 µM
- TGI (UACC-257 melanoma): > 100 µM
- TGI (HCC-2998 colon): > 100 µM
- TGI (OVCAR-3 ovarian): > 100 µM
- TGI (A498 renal): > 100 µM
- TGI (SK-MEL-28 melanoma): > 100 µM
- TGI (SW-620 colon): > 100 µM
- TGI (SN12C renal): > 100 µM
- TGI (HOP-62 NSCLC): > 100 µM
- TGI (ACHN renal): > 100 µM
- TGI (PC-3 prostate): > 100 µM
- TGI (T-47D breast): > 100 µM
- TGI (MALME-3M melanoma): > 100 µM
- TGI (OVCAR-4 ovarian): > 100 µM
- TGI (M14 melanoma): > 100 µM
- TGI (786-0 renal): > 100 µM
- TGI (MDA-MB-231 breast): > 100 µM
- TGI (COLO 205 colon): > 100 µM
- TGI (MCF7 breast): > 100 µM
- TGI (K-562 leukemia): > 100 µM
- TGI (U251 CNS): > 100 µM
- TGI (SF-268 CNS): > 100 µM
- TGI (SK-MEL-5 melanoma): > 100 µM
- TGI (A549 NSCLC): > 100 µM
- TGI (HOP-92 NSCLC): > 100 µM
- TGI (SK-OV-3 ovarian): > 100 µM
- TGI (RPMI-8226 leukemia): > 100 µM
- TGI (NCI-H226 lung): > 100 µM
- TGI (UO-31 renal): > 100 µM
- TGI (HS 578T breast): > 100 µM
- TGI (MDA-MB-435): > 100 µM
- TGI (UACC-62 melanoma): > 100 µM
- TGI (SNB-75 CNS): > 100 µM
- TGI (SNB-19 CNS): > 100 µM
- TGI (HCT-116 colon): > 100 µM
- TGI (HL-60(TB) leukemia): > 100 µM
- TGI (SR leukemia): > 100 µM
- TGI (KM12 colon): > 100 µM
- TGI (IGROV1 ovarian): > 100 µM
- TGI (HT29 colon): > 100 µM
- TGI (DU-145 prostate): > 100 µM
- TGI (LOX IMVI melanoma): > 100 µM
- TGI (NCI-H460 lung): > 100 µM

SMILES: CO/N=C(\C(=O)Nc1cncs1)c1csc(NC(c2ccccc2)(c2ccccc2)c2ccccc2)n1
- TGI (NCI-H522 lung): > 10 µM
- TGI (RXF 393 renal): > 10 µM
- TGI (BT-549 breast): > 10 µM
- TGI (NCI-H23 lung): > 10 µM
- TGI (OVCAR-8 ovarian): > 10 µM
- TGI (TK-10 renal): > 10 µM
- TGI (MOLT-4 leukemia): > 10 µM
- TGI (SF-539 CNS): > 10 µM
- TGI (SF-295 CNS): > 10 µM
- TGI (CCRF-CEM leukemia): > 10 µM
- TGI (OVCAR-5 ovarian): > 10 µM
- TGI (EKVX NSCLC): > 10 µM
- TGI (MDA-N): > 10 µM
- TGI (UACC-257 melanoma): > 10 µM
- TGI (HCC-2998 colon): > 10 µM
- TGI (OVCAR-3 ovarian): > 10 µM
- TGI (A498 renal): > 10 µM
- TGI (SK-MEL-28 melanoma): > 10 µM
- TGI (SW-620 colon): > 10 µM
- TGI (SN12C renal): > 10 µM
- TGI (HOP-62 NSCLC): > 10 µM
- TGI (ACHN renal): > 10 µM
- TGI (PC-3 prostate): > 10 µM
- TGI (T-47D breast): > 10 µM
- TGI (MALME-3M melanoma): > 10 µM
- TGI (OVCAR-4 ovarian): > 10 µM
- TGI (M14 melanoma): > 10 µM
- TGI (CAKI-1 renal): > 10 µM
- TGI (786-0 renal): > 10 µM
- TGI (COLO 205 colon): > 10 µM
- TGI (MCF7 breast): > 10 µM
- TGI (K-562 leukemia): > 10 µM
- TGI (U251 CNS): > 10 µM
- TGI (SF-268 CNS): > 10 µM
- TGI (SK-MEL-5 melanoma): > 10 µM
- TGI (A549 NSCLC): > 10 µM
- TGI (HOP-92 NSCLC): > 10 µM
- TGI (SK-OV-3 ovarian): > 10 µM
- TGI (RPMI-8226 leukemia): > 10 µM
- TGI (NCI-H226 lung): > 10 µM
- TGI (UO-31 renal): > 10 µM
- TGI (HS 578T breast): > 10 µM
- TGI (SNB-75 CNS): > 10 µM
- TGI (SK-MEL-2 melanoma): > 10 µM
- TGI (SNB-19 CNS): > 10 µM
- TGI (HCT-116 colon): > 10 µM
- TGI (HL-60(TB) leukemia): > 10 µM
- TGI (SR leukemia): > 10 µM
- TGI (HCT-15 colon): > 10 µM
- TGI (KM12 colon): > 10 µM
- TGI (IGROV1 ovarian): > 10 µM
- TGI (HT29 colon): > 10 µM
- TGI (DU-145 prostate): > 10 µM
- TGI (LOX IMVI melanoma): > 10 µM
- TGI (NCI-H460 lung): > 10 µM
- TGI (NCI/ADR-RES ovarian): > 10 µM

SMILES: Cc1c(Cc2ccccc2)n(COCCCO)c(=O)[nH]c1=O
- TGI (NCI-H522 lung): > 100 µM
- TGI (RXF 393 renal): > 100 µM
- TGI (BT-549 breast): > 100 µM
- TGI (NCI-H23 lung): > 100 µM
- TGI (OVCAR-8 ovarian): > 100 µM
- TGI (TK-10 renal): > 100 µM
- TGI (MOLT-4 leukemia): > 100 µM
- TGI (SF-539 CNS): > 100 µM
- TGI (SF-295 CNS): > 100 µM
- TGI (CCRF-CEM leukemia): > 100 µM
- TGI (OVCAR-5 ovarian): > 100 µM
- TGI (EKVX NSCLC): > 100 µM
- TGI (MDA-N): > 100 µM
- TGI (UACC-257 melanoma): > 100 µM
- TGI (HCC-2998 colon): > 100 µM
- TGI (OVCAR-3 ovarian): > 100 µM
- TGI (A498 renal): > 100 µM
- TGI (SK-MEL-28 melanoma): > 100 µM
- TGI (SW-620 colon): > 100 µM
- TGI (SN12C renal): > 100 µM
- TGI (HOP-62 NSCLC): > 100 µM
- TGI (ACHN renal): > 100 µM
- TGI (PC-3 prostate): > 100 µM
- TGI (T-47D breast): > 100 µM
- TGI (MALME-3M melanoma): > 100 µM
- TGI (OVCAR-4 ovarian): > 100 µM
- TGI (M14 melanoma): > 100 µM
- TGI (CAKI-1 renal): > 100 µM
- TGI (786-0 renal): > 100 µM
- TGI (MDA-MB-231 breast): > 100 µM
- TGI (COLO 205 colon): > 100 µM
- TGI (MCF7 breast): > 100 µM
- TGI (K-562 leukemia): > 100 µM
- TGI (U251 CNS): > 100 µM
- TGI (SF-268 CNS): > 100 µM
- TGI (SK-MEL-5 melanoma): > 100 µM
- TGI (A549 NSCLC): > 100 µM
- TGI (HOP-92 NSCLC): > 100 µM
- TGI (SK-OV-3 ovarian): > 100 µM
- TGI (RPMI-8226 leukemia): > 100 µM
- TGI (NCI-H226 lung): > 100 µM
- TGI (UO-31 renal): > 100 µM
- TGI (HS 578T breast): > 100 µM
- TGI (MDA-MB-435): > 100 µM
- TGI (UACC-62 melanoma): > 100 µM
- TGI (SNB-75 CNS): > 100 µM
- TGI (SK-MEL-2 melanoma): > 100 µM
- TGI (SNB-19 CNS): > 100 µM
- TGI (HCT-116 colon): > 100 µM
- TGI (HCT-15 colon): > 100 µM
- TGI (KM12 colon): > 100 µM
- TGI (IGROV1 ovarian): > 100 µM
- TGI (HT29 colon): > 100 µM
- TGI (DU-145 prostate): > 100 µM
- TGI (LOX IMVI melanoma): > 100 µM
- TGI (NCI-H460 lung): > 100 µM
- TGI (NCI/ADR-RES ovarian): > 100 µM
